The target in series [1] is T1, DPP-IV (Homo sapiens, UniProt P27487).
T1 construct: an extract of human colon carcinoma cell line Caco-2 is used as the DPP-IV source; endogenous in cells; host or cells: Caco-2 (human colon carcinoma), differentiated to induce DPP-IV expression
The series can be described thus: DPP-IV assay with Caco-2 cell extract as DPP-IV source. Format: biochemical. Particulars: extract of human colon carcinoma cell line Caco-2; AFC substrate 100 μM; 60 minutes at ambient temperature; read-out: DPP-IV inhibition IC50. As for the experimental part: The differentiation of the cells in order to induce the DPP-IV expression was carried out as described by Reiher et al., “Increased Expression of Intestinal Cell Line Caco-2”, Proc. Natl. Acad. Sci. Vol. 90, pages 5757-5761 (1993). The cell extract was obtained from cells solubilized in a buffer (10 mM Tris HCl, 0.15 M NaCl, 0.04 t.i.u. aprotinin, 0.5% Nonidet P-40, pH 8.0) by centrifuging at 35,000 g for 30 minutes at 4° C. (to remove cell debris).
The DPP-IV assay was carried out as follows:
50 μL substrate solution (AFC; AFC is amido-4-trifluoromethylcoumarin), final concentration 100 μM, were placed in black microtitre plates. 20 μL of assay buffer (final concentrations 50 mM Tris HCl pH 7.8, 50 mM NaCl, 1% DMSO) was pipetted in. The reaction was started by adding 30 μL of solubilized Caco-2 protein (final concentration 0.14 μg of protein per well). The test substances to be investigated were typically added prediluted in 20 μL, and the volume of assay buffer was then reduced accordingly. The reaction was carried out at ambient temperature, incubating for 60 minutes. Then the fluorescence was measured in a Victor 1420 Multilabel Counter, the excitation wavelength being 405 nm and the emission wavelength being 535 nm. Blank readings (corresponding to 0% activity) were obtained in mixtures without any Caco-2 protein (volume replaced by assay buffer), control values (corresponding to 100% activity) were obtained in mixtures with no substance added. […]

Series [2] can be described thus: Tolerability after oral administration to rats (behavior). Particulars: 10 mg/kg. Format: in vivo.

T1 sequence (P27487 whole entry): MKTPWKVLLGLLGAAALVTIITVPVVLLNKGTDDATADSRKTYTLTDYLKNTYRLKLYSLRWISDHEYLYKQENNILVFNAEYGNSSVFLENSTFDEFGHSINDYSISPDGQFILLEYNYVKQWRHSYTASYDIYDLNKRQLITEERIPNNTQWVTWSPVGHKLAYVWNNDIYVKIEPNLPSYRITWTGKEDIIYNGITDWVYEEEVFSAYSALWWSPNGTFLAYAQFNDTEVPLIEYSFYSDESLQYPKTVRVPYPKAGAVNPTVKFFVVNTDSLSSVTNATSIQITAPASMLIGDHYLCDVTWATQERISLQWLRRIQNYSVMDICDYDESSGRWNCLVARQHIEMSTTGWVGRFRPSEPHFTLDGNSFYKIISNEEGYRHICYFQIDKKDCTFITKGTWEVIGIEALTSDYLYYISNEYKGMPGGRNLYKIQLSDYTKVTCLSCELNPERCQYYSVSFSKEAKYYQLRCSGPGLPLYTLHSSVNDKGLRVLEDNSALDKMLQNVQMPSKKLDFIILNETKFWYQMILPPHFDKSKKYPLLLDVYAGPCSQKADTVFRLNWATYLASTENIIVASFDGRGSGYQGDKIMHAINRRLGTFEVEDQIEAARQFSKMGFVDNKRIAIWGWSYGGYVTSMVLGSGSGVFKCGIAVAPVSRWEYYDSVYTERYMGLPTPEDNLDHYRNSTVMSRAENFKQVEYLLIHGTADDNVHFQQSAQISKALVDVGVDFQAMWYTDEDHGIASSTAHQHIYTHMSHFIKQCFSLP

`CC(C)=CCn1c(N2CCCC(N)C2)nc2c1c(=O)n(CC(=O)c1ccccc1NC(=O)C1CC1)c(=O)n2C` (stereo not drawn) [1 (1), 1-(2-{2-[(cyclopropylcarbonyl)amino]phenyl}-2-oxoethyl)-3-methyl-7-(3-methyl-2-buten-1-yl)-8-(3-aminopiperidin-1-yl)xanthine]: the IC50 in series [1] came to 11 nM.

Take `CC#CCn1c(N2CCCC(N)C2)nc2c1c(=O)n(CC(=O)c1ccccc1NC=O)c(=O)n2C` (stereo not drawn) [1 (2), 1-[2-(2-formylaminophenyl)-2-oxoethyl]-3-methyl-7-(2-butyn-1-yl)-8-(3-aminopiperidin-1-yl)xanthine]: in series [1], the half-inhibitory concentration (IC50) was determined as 3 nM.

`C/C=C/Cn1c(N2CCC[C@@H](N)C2)nc2c1c(=O)n(CC(=O)c1ccccc1NC(=O)C1CC1)c(=O)n2C` [1 (3), 1-(2-{2-[(cyclopropylcarbonyl)amino]phenyl}-2-oxoethyl)-3-methyl-7-((E)-2-buten-1-yl)-8-((R)-3-aminopiperidin-1-yl)xanthine]: in series [1], the half-inhibitory concentration (IC50) stood at 4 nM.

Consider `C/C=C/Cn1c(N2CCC[C@H](N)C2)nc2c1c(=O)n(CC(=O)c1ccccc1NC(=O)C1CC1)c(=O)n2C` [1 (4), 1-(2-{2-[(cyclopropylcarbonyl)amino]phenyl}-2-oxoethyl)-3-methyl-7-((E)-2-buten-1-yl)-8-((S)-3-aminopiperidin-1-yl)xanthine], for which, in series [1], the IC50 turned out to be 3 nM.

Turning to `CC#CCn1c(N2CCC[C@H](N)C2)nc2c1c(=O)n(CC(=O)c1ccccc1NC(=O)C1CC1)c(=O)n2C` [1 (6), 1-(2-{2-[(cyclopropylcarbonyl)amino]phenyl}-2-oxoethyl)-3-methyl-7-(2-butyn-1-yl)-8-((S)-3-aminopiperidin-1-yl)xanthine], the IC50 in series [1] is 5 nM.

On to `C/C=C/Cn1c(N2CCCC(N)C2)nc2c1c(=O)n(CC(=O)c1ccccc1NC(=O)c1ccccn1)c(=O)n2C` (stereo not drawn) [1 (7), 1-[2-(2-{[(pyridin-2-yl)carbonyl]amino}phenyl)-2-oxoethyl]-3-methyl-7-((E)-2-buten-1-yl)-8-(3-aminopiperidin-1-yl)xanthine], for which the concentration for half-maximal inhibition (IC50) in series [1] is 8 nM.

With `CC#CCn1c(N2CCC[C@@H](N)C2)nc2c1c(=O)n(CC(=O)c1ccccc1NC(=O)C1CC1)c(=O)n2C` [Example 1 (5), 1-(2-{2-[(cyclopropylcarbonyl)amino]phenyl}-2-oxoethyl)-3-methyl-7-(2-butyn-1-yl)-8-((R)-3-aminopiperidin-1-yl)xanthine], the IC50 in series [1] stood at 3 nM. For the same compound, the “changes in the animals' behavior” value in series [2] was “no changes in the animals' behavior could be detected”.

`CC(C)=CCn1c(N2CCCC(N)C2)nc2c1c(=O)n(CC(=O)c1ccccc1NC=O)c(=O)n2C` (stereo not drawn) [Example 1, 1-[2-(2-formylaminophenyl)-2-oxoethyl]-3-methyl-7-(3-methyl-2-buten-1-yl)-8-(3-aminopiperidin-1-yl)xanthine]: the IC50 in series [1] amounted to 5 nM.

The record behind these values is patent US7838529B2, “Xanthine derivates, their preparation and their use in pharmaceutical compositions” (Boehringer Ingelheim International GmbH, priority 2002, dated 2010).
